According to ChEMBL document CHEMBL3885881, “DrugMatrix”:

Species on record: Rattus norvegicus
Experiment: DrugMatrix - Regimen: Daily Repeat
Type: toxicity, organism-based, Sprague-Dawley
Set-up: regimen Daily Repeat, gender Male, age 6-8 weeks
Conditions: in vivo, po, route oral GAVAGE, […]; for ABSOLUTE BASOPHIL / ABSOLUTE EOSINOPHIL / ABSOLUTE LYMPHOCYTE / ABSOLUTE MONOCYTE / ABSOLUTE SEGMENTED NEUTROPHIL / BASOPHIL / EOSINOPHIL / ERYTHROCYTE COUNT / HEMATOCRIT / HEMOGLOBIN / LEUKOCYTE COUNT / LYMPHOCYTE / MEAN CORPUSCULAR HEMOGLOBIN / MEAN CORPUSCULAR HEMOGLOBIN CONCENTRATION / MEAN CORPUSCULAR VOLUME / MONOCYTE / NEUTROPHIL / NUCLEATED RED BLOOD CELLS / PLATELET COUNT: tissue Blood; for ALANINE AMINOTRANSFERASE / ALKALINE PHOSPHATASE / ASPARTATE AMINOTRANSFERASE / BLOOD UREA NITROGEN / CARBON DIOXIDE / CHLORIDE / CHOLESTEROL / CREATINE PHOSPHOKINASE / CREATININE / GLUCOSE / LACTATE DEHYDROGENASE / LIPASE / PHOSPHORUS / POTASSIUM / SODIUM / TOTAL BILIRUBIN / TOTAL PROTEIN / URIC ACID: tissue Plasma
[1] = 0 mg/kg, 72 h, dose level Control, time 3 day
[2] = 0 mg/kg, 120 h, dose level Control, time 5 day
[3] = 22 mg/kg, 72 h, dose level High, time 3 day

Compound: OCCN1CCN(CCCN2c3ccccc3Sc3ccc(C(F)(F)F)cc32)CC1 [FLUPHENAZINE]
- ABSOLUTE BASOPHIL [1]: 0 CELLS/uL
- ABSOLUTE EOSINOPHIL [1]: 0 CELLS/uL
- ABSOLUTE LYMPHOCYTE [1]: 6275.67 CELLS/uL
- ABSOLUTE MONOCYTE [1]: 40.67 CELLS/uL
- ABSOLUTE SEGMENTED NEUTROPHIL [1]: 633.67 CELLS/uL
- BASOPHIL [1]: 0%
- EOSINOPHIL [1]: 0%
- ERYTHROCYTE COUNT [1]: 5.2 x10E6/uL
- HEMATOCRIT [1]: 32.78%
- HEMOGLOBIN [1]: 12.98 G/DL
- LEUKOCYTE COUNT [1]: 6.95 x10E3/uL
- LYMPHOCYTE [1]: 90.17%
- MEAN CORPUSCULAR HEMOGLOBIN [1]: 24.97 pg
- MEAN CORPUSCULAR HEMOGLOBIN CONCENTRATION [1]: 39.62 G/DL
- MEAN CORPUSCULAR VOLUME [1]: 63.03 fL
- MONOCYTE [1]: 0.67%
- NEUTROPHIL [1]: 9.17%
- NUCLEATED RED BLOOD CELLS [1]: 0 /100WBC
- PLATELET COUNT [1]: 1082.83 x10E3/uL
- ALANINE AMINOTRANSFERASE [1]: 69.67 u/L
- ALKALINE PHOSPHATASE [1]: 430.5 u/L
- ASPARTATE AMINOTRANSFERASE [1]: 90.83 u/L
- BLOOD UREA NITROGEN [1]: 13 mg/dL
- CARBON DIOXIDE [1]: 33 mmol/L
- CHLORIDE [1]: 99.17 MEQ/L
- CHOLESTEROL [1]: 70.5 mg/dL
- CREATINE PHOSPHOKINASE [1]: 253.33 u/L
- CREATININE [1]: 0.13 mg/dL
- GLUCOSE [1]: 157.17 mg/dL
- LACTATE DEHYDROGENASE [1]: 85 u/L
- LIPASE [1]: 10 u/L
- PHOSPHORUS [1]: 10.2 mg/dL
- POTASSIUM [1]: 5.78 MEQ/L
- SODIUM [1]: 144.12 MEQ/L
- TOTAL BILIRUBIN [1]: 0.2 mg/dL
- TOTAL PROTEIN [1]: 5.8 G/DL
- URIC ACID [1]: 0.8 mg/dL
- ABSOLUTE BASOPHIL [2]: 0 CELLS/uL
- ABSOLUTE EOSINOPHIL [2]: 0 CELLS/uL
- ABSOLUTE LYMPHOCYTE [2]: 10431 CELLS/uL
- ABSOLUTE MONOCYTE [2]: 90.5 CELLS/uL
- ABSOLUTE SEGMENTED NEUTROPHIL [2]: 1111.83 CELLS/uL
- BASOPHIL [2]: 0%
- EOSINOPHIL [2]: 0%
- ERYTHROCYTE COUNT [2]: 5.51 x10E6/uL
- HEMATOCRIT [2]: 34.67%
- HEMOGLOBIN [2]: 13.5 G/DL
- LEUKOCYTE COUNT [2]: 11.63 x10E3/uL
- LYMPHOCYTE [2]: 89.67%
- MEAN CORPUSCULAR HEMOGLOBIN [2]: 24.5 pg
- MEAN CORPUSCULAR HEMOGLOBIN CONCENTRATION [2]: 38.95 G/DL
- MEAN CORPUSCULAR VOLUME [2]: 62.87 fL
- MONOCYTE [2]: 0.67%
- NEUTROPHIL [2]: 9.67%
- NUCLEATED RED BLOOD CELLS [2]: 0 /100WBC
- PLATELET COUNT [2]: 1052.67 x10E3/uL
- ALANINE AMINOTRANSFERASE [2]: 54.67 u/L
- ALKALINE PHOSPHATASE [2]: 359.83 u/L
- ASPARTATE AMINOTRANSFERASE [2]: 83 u/L
- BLOOD UREA NITROGEN [2]: 13.5 mg/dL
- CARBON DIOXIDE [2]: 27.17 mmol/L
- CHLORIDE [2]: 98.5 MEQ/L
- CHOLESTEROL [2]: 66.83 mg/dL
- CREATINE PHOSPHOKINASE [2]: 256.17 u/L
- CREATININE [2]: 0.19 mg/dL
- GLUCOSE [2]: 171.33 mg/dL
- LACTATE DEHYDROGENASE [2]: 91.5 u/L
- LIPASE [2]: 10.5 u/L
- PHOSPHORUS [2]: 8.72 mg/dL
- POTASSIUM [2]: 5.34 MEQ/L
- SODIUM [2]: 142.53 MEQ/L
- TOTAL BILIRUBIN [2]: 0.2 mg/dL
- TOTAL PROTEIN [2]: 6.05 G/DL
- URIC ACID [2]: 0.6 mg/dL
- ABSOLUTE BASOPHIL [3]: 0 CELLS/uL
- ABSOLUTE EOSINOPHIL [3]: 0 CELLS/uL
- ABSOLUTE LYMPHOCYTE [3]: 7819 CELLS/uL
- ABSOLUTE MONOCYTE [3]: 96.67 CELLS/uL
- ABSOLUTE SEGMENTED NEUTROPHIL [3]: 384.33 CELLS/uL
- BASOPHIL [3]: 0%
- EOSINOPHIL [3]: 0%
- ERYTHROCYTE COUNT [3]: 6.13 x10E6/uL
- HEMATOCRIT [3]: 39.3%
- HEMOGLOBIN [3]: 15.37 G/DL
- LEUKOCYTE COUNT [3]: 8.3 x10E3/uL
- LYMPHOCYTE [3]: 94.67%
- MEAN CORPUSCULAR HEMOGLOBIN [3]: 25.03 pg
- MEAN CORPUSCULAR HEMOGLOBIN CONCENTRATION [3]: 39.07 G/DL
- MEAN CORPUSCULAR VOLUME [3]: 64.13 fL
- MONOCYTE [3]: 1%
- NEUTROPHIL [3]: 4.33%
- NUCLEATED RED BLOOD CELLS [3]: 0 /100WBC
- PLATELET COUNT [3]: 1324.33 x10E3/uL
- ALANINE AMINOTRANSFERASE [3]: 35.33 u/L
- ALKALINE PHOSPHATASE [3]: 274 u/L
- ASPARTATE AMINOTRANSFERASE [3]: 77 u/L
- BLOOD UREA NITROGEN [3]: 16.33 mg/dL
- CARBON DIOXIDE [3]: 34 mmol/L
- CHLORIDE [3]: 108.33 MEQ/L
- CHOLESTEROL [3]: 92.67 mg/dL
- CREATINE PHOSPHOKINASE [3]: 280 u/L
- CREATININE [3]: 0.13 mg/dL
- GLUCOSE [3]: 154 mg/dL
- LACTATE DEHYDROGENASE [3]: 79.33 u/L
- LIPASE [3]: 9.67 u/L
- PHOSPHORUS [3]: 9.4 mg/dL
- POTASSIUM [3]: 5.57 MEQ/L
- SODIUM [3]: 156.07 MEQ/L
- TOTAL BILIRUBIN [3]: 0.17 mg/dL
- TOTAL PROTEIN [3]: 6.13 G/DL
- URIC ACID [3]: 0.53 mg/dL
